Data as given in EP3154958B1, “PHOSPHATIDYLINOSITOL 3-KINASE INHIBITORS” (Gilead Sciences, Inc., priority 2014, dated 2015).

Assays:
Format in all cases: biochemical
[1] = target: T1, PI3Kβ (Homo sapiens, UniProt P42338); assay: TR-FRET enzymatic activity assay, PI3Kβ; conditions: recombinant heterodimeric PI3Kβ 25-50 pM, 2× Km ATP, 30 minutes at 25°C
T1 construct: made in house
How it was run: (§1)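 TR-FRET read-out of enzyme activity, run separately for each PI3K isoform.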

[2] = target: T2, PI3Kγ (Homo sapiens, UniProt P48736); assay: TR-FRET enzymatic activity assay, PI3Kγ; conditions: recombinant heterodimeric PI3Kγ 2 nM, 2× Km ATP, 30 minutes at 25°C
T2 construct: made in house
How it was run: as §1

[3] = target: T3, PI3Kδ (Homo sapiens, UniProt O00329); assay: TR-FRET enzymatic activity assay, PI3Kδ; conditions: recombinant heterodimeric PI3Kδ 25-50 pM, 2× Km ATP, 30 minutes at 25°C
T3 construct: made in house
How it was run: as §1

T1 sequence (P42338 whole entry): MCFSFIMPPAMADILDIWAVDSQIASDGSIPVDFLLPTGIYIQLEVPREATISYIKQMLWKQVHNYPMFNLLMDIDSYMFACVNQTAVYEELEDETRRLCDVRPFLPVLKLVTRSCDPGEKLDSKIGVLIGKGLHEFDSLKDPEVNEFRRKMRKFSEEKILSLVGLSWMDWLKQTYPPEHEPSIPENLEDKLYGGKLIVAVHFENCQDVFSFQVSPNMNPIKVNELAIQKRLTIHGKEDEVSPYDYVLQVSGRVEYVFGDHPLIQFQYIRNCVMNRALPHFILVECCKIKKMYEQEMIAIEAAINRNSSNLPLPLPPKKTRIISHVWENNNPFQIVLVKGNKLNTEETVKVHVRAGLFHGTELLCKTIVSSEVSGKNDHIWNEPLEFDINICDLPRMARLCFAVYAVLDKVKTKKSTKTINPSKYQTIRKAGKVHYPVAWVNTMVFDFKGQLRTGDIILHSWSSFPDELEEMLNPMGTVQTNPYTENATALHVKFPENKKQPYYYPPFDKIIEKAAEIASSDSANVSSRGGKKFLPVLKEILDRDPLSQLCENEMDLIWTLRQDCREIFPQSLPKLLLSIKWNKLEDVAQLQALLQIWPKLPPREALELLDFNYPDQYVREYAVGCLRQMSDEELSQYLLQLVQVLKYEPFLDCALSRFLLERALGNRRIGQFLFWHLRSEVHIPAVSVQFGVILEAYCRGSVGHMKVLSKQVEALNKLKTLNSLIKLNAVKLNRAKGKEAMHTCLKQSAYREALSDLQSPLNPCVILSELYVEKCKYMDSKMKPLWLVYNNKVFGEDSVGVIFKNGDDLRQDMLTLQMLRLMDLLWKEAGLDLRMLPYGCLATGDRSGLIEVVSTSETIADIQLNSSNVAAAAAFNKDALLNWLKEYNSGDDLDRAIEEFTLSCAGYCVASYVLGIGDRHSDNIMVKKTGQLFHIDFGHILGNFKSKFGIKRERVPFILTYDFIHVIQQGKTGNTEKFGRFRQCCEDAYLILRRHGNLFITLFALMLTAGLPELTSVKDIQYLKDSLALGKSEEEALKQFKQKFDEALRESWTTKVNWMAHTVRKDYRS
T1 sequence (P27986 whole entry partner): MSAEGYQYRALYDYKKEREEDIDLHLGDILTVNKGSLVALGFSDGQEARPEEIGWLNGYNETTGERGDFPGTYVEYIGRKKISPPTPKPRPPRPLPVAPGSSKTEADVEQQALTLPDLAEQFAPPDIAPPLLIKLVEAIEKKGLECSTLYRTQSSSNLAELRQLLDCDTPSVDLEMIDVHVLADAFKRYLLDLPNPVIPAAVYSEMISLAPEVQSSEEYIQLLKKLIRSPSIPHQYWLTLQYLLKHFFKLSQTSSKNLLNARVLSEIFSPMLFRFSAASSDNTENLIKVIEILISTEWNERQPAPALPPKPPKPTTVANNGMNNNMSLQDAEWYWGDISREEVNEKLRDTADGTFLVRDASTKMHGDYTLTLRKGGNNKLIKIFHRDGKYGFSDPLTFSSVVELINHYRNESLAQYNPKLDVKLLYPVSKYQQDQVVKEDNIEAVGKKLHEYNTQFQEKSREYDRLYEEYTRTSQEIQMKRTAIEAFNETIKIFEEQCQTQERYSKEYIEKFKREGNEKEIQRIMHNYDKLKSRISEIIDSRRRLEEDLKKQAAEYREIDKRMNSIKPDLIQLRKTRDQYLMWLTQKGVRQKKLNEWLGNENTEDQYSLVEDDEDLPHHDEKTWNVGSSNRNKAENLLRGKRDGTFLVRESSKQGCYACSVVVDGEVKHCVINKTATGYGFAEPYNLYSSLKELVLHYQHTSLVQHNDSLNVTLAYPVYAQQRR
T2 sequence (P48736 whole entry): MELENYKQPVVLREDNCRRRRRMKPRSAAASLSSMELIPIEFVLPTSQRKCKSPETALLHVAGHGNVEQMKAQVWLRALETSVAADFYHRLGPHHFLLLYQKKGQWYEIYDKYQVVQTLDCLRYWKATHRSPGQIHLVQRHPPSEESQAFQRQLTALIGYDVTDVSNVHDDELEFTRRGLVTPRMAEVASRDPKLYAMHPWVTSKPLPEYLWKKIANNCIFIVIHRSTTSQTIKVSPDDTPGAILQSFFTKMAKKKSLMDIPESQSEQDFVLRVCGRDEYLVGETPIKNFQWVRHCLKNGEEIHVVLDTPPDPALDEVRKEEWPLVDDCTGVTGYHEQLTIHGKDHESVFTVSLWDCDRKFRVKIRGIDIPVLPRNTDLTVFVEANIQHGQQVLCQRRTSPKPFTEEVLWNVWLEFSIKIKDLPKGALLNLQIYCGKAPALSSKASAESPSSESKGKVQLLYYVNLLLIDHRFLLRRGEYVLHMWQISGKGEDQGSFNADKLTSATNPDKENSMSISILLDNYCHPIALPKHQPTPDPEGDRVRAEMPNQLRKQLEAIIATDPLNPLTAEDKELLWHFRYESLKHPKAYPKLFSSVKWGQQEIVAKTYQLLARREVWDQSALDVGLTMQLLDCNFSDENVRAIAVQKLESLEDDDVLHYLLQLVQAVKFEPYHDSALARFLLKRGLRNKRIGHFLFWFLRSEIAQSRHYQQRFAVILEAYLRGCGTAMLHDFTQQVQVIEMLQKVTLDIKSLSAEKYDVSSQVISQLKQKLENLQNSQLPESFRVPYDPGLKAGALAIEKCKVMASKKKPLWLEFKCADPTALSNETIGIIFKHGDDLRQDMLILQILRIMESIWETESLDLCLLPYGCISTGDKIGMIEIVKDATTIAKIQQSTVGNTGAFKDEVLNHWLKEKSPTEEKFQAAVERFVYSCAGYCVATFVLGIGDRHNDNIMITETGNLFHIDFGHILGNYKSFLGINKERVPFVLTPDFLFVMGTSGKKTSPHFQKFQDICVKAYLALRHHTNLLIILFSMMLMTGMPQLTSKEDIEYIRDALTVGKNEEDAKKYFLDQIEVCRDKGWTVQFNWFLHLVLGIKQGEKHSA
T2 sequence (Q8WYR1 whole entry partner): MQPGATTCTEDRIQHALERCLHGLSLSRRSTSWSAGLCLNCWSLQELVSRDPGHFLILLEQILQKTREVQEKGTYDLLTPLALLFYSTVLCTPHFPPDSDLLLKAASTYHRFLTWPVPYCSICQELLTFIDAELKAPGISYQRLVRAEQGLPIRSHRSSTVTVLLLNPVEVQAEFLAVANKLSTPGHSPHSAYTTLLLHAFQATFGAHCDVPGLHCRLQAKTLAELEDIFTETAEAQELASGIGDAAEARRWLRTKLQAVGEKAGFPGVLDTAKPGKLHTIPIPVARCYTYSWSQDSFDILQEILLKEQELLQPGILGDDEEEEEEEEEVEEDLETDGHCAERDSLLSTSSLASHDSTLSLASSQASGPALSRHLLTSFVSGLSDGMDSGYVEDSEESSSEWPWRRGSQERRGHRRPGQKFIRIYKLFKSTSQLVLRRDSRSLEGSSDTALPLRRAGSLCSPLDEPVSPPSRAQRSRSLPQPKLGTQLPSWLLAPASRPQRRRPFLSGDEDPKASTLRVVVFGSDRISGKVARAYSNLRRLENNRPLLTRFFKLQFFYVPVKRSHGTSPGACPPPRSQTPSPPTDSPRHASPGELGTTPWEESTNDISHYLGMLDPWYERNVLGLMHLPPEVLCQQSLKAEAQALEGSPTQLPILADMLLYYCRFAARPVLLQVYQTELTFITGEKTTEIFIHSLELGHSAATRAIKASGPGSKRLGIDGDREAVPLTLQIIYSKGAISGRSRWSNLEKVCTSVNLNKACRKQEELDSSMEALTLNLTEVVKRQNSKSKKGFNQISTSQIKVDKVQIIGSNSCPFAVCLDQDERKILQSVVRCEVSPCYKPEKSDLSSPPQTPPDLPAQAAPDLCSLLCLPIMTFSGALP
T3 sequence (O00329 whole entry): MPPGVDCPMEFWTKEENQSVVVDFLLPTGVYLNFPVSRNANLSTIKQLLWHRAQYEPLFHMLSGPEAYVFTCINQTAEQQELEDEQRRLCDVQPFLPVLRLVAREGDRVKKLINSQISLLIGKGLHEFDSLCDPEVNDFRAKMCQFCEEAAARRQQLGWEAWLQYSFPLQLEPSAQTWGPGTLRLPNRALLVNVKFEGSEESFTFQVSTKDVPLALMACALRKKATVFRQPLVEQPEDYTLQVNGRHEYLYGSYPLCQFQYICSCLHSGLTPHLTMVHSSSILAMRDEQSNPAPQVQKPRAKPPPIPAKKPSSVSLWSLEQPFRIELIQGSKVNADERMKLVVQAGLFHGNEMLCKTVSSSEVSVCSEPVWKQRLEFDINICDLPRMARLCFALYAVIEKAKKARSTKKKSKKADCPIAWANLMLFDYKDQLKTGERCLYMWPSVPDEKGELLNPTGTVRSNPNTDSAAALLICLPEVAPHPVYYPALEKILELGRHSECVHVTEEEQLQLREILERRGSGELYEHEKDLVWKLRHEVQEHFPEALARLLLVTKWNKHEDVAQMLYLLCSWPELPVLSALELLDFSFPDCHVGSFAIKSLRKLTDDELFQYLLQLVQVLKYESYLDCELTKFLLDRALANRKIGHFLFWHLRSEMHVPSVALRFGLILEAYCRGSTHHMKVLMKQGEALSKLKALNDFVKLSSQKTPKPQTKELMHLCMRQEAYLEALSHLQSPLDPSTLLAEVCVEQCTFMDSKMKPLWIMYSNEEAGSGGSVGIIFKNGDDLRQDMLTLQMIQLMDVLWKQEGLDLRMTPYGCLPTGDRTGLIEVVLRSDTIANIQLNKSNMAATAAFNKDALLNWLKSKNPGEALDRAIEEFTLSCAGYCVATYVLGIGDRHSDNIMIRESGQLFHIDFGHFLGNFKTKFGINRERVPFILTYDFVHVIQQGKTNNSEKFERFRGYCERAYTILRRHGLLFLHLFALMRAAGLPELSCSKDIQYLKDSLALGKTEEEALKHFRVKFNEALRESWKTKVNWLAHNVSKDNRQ
T3 sequence (P27986 whole entry partner): as the sequence (P27986 whole entry partner) above

SMILES: C[C@H](Nc1nc(N)nc(N)c1C#N)c1nc2cccc(Cl)c2c(=O)n1C1CCN(CC(F)(F)F)C1 (stereo partly drawn) [Compound 119, 2,4-diamino-6-(((1S)-1-(5-chloro-4-oxo-3-(1-(2,2,2-trifluoroethyl)pyrrolidin-3-yl)-3,4-dihydroquinazolin-2-yl)ethyl)amino)pyrimidine-5-carbonitrile]
- IC50 [1]: 360 nM
- IC50 [2]: 2900 nM
- IC50 [3]: 14 nM

SMILES: C[C@H](Nc1ncnc(N)c1C#N)c1nc2cccc(Cl)c2c(=O)n1C1CCCNCC1 (stereo partly drawn) [Compound 84, 4-amino-6-(((1S)-1-(3-(azepan-4-yl)-5-chloro-4-oxo-3,4-dihydroquinazolin-2-yl)ethyl)amino)pyrimidine-5-carbonitrile]
- IC50 [1]: 32 nM
- IC50 [2]: > 10000 nM
- IC50 [3]: 2 nM

SMILES: C[C@H](Nc1ncnc2cccnc12)c1nc2cccc(Cl)c2c(=O)n1N1CCNCC1 [Compound 73, (S)-5-chloro-3-(piperazin-1-yl)-2-(1-(pyrido[3,2-d]pyrimidin-4-ylamino)ethyl)quinazolin-4(3H)-one]
- IC50 [1]: 19 nM
- IC50 [2]: > 10000 nM
- IC50 [3]: 8 nM

SMILES: C[C@H](Nc1ncnc(N)c1C#Cc1ccc(F)cn1)c1nc2cccc(Cl)c2c(=O)n1C1CNC1 [Compound 132, (S)-2-(1-((6-amino-5-((5-fluoropyridin-2-yl)ethynyl)pyrimidin-4-yl)amino)ethyl)-3-(azetidin-3-yl)-5-chloroquinazolin-4(3H)-one]
- IC50 [1]: 1000 nM
- IC50 [2]: > 10000 nM
- IC50 [3]: 250 nM

SMILES: CN1CCN(n2c([C@@H](Nc3nc(N)nc(N)c3C#N)C3CC3)nc3cccc(Cl)c3c2=O)CC1 [Compound 1, (S)-2,4-diamino-6-(((5-chloro-3-(4-methylpiperazin-1-yl)-4-oxo-3,4-dihydroquinazolin-2-yl)(cyclopropyl)methyl)amino)pyrimidine-5-carbonitrile]
- IC50 [1]: 30 nM
- IC50 [2]: 1740 nM
- IC50 [3]: 21 nM

SMILES: C[C@H](Nc1nc(N)nc(N)c1Cl)c1nc2cccc(Cl)c2c(=O)n1[C@@H]1CCCNCC1 [Compound 13, 3-((R)-azepan-4-yl)-5-chloro-2-((S)-1-((2,6-diamino-5-chloropyrimidin-4-yl)amino)ethyl)quinazolin-4(3H)-one]
- IC50 [1]: 180 nM
- IC50 [2]: > 10000 nM
- IC50 [3]: 33 nM

SMILES: C[C@H](Nc1nc(N)nc(N)c1C#N)c1nc2cccc(Cl)c2c(=O)n1C1C[C@H]2CC[C@@H](C1)N2C (stereo partly drawn) [Compound 4, 2,4-diamino-6-(((1S)-1-(5-chloro-3-((1R,5S)-8-methyl-8-azabicyclo[3.2.1]octan-3-yl)-4-oxo-3,4-dihydroquinazolin-2-yl)ethyl)amino)pyrimidine-5-carbonitrile]
- IC50 [1]: 290 nM
- IC50 [2]: > 10000 nM
- IC50 [3]: 82 nM

SMILES: C[C@H](Nc1ncnn2ccnc12)c1nc2c(F)ccc(F)c2c(=O)n1N1CCNCC1 [Compound 40, (S)-5,8-difluoro-2-(1-(imidazo[2,1-f][1,2,4]triazin-4-ylamino)ethyl)-3-(piperazin-1-yl)quinazolin-4(3H)-one]
- IC50 [1]: 200 nM
- IC50 [2]: > 10000 nM
- IC50 [3]: 26 nM

SMILES: CC[C@H](Nc1nc(N)nc(C)c1C#N)c1nc2cccc(Cl)c2c(=O)n1C1CCNCC1 [Compound 23, (S)-2-amino-4-((1-(5-chloro-4-oxo-3-(piperidin-4-yl)-3,4-dihydroquinazolin-2-yl)propyl)amino)-6-methylpyrimidine-5-carbonitrile]
- IC50 [1]: 3 nM
- IC50 [2]: > 10000 nM
- IC50 [3]: 5 nM

SMILES: C[C@H](Nc1ncnc(N)c1C#N)c1nc2c(Cl)ccc(Cl)c2c(=O)n1N1CCNCC1 [Compound 76, (S)-4-amino-6-((1-(5,8-dichloro-4-oxo-3-(piperazin-1-yl)-3,4-dihydroquinazolin-2-yl)ethyl)amino)pyrimidine-5-carbonitrile]
- IC50 [1]: 25 nM
- IC50 [2]: > 10000 nM
- IC50 [3]: 2 nM

SMILES: C[C@H](Nc1nc(N)nc(Cl)c1C#N)c1nc2cccc(Cl)c2c(=O)n1N1CCN(CC(F)(F)F)CC1 [Compound 110, (S)-2-amino-4-chloro-6-((1-(5-chloro-4-oxo-3-(4-(2,2,2-trifluoroethyl)piperazin-1-yl)-3,4-dihydroquinazolin-2-yl)ethyl)amino)pyrimidine-5-carbonitrile]
- IC50 [1]: 1400 nM
- IC50 [2]: 2800 nM
- IC50 [3]: 41 nM

SMILES: C[C@H](Nc1nc(N)nc(Cl)c1C#N)c1nc2cccc(Cl)c2c(=O)n1N1CCN(CC(F)F)CC1 [Compound 113, (S)-2-amino-4-chloro-6-((1-(5-chloro-3-(4-(2,2-difluoroethyl)piperazin-1-yl)-4-oxo-3,4-dihydroquinazolin-2-yl)ethyl)amino)pyrimidine-5-carbonitrile]
- IC50 [1]: 600 nM
- IC50 [2]: 1300 nM
- IC50 [3]: 42 nM

SMILES: C[C@H](Nc1nc(N)nc(N)c1Cl)c1nc2cccc(Cl)c2c(=O)n1N1CCNCC1 [Compound 72, (S)-5-chloro-2-(1-((2,6-diamino-5-chloropyrimidin-4-yl)amino)ethyl)-3-(piperazin-1-yl)quinazolin-4(3H)-one]
- IC50 [1]: 28 nM
- IC50 [2]: > 10000 nM
- IC50 [3]: 11 nM

SMILES: C[C@H](Nc1nc(N)nc(N)c1Cl)c1nc2cccc(Cl)c2c(=O)n1C1CCN(CC(F)(F)F)CC1 [Compound 104, (S)-5-chloro-2-(1-((2,6-diamino-5-chloropyrimidin-4-yl)amino)ethyl)-3-(1-(2,2,2-trifluoroethyl)piperidin-4-yl)quinazolin-4(3H)-one]
- IC50 [1]: 10000 nM
- IC50 [2]: > 10000 nM
- IC50 [3]: 260 nM

SMILES: CC[C@H](Nc1nc(N)nc(N)c1C#N)c1nc2c(F)ccc(Cl)c2c(=O)n1N1CCN(Cc2ccccc2)CC1 [Compound 95, (S)-2,4-diamino-6-((1-(3-(4-benzylpiperazin-1-yl)-5-chloro-8-fluoro-4-oxo-3,4-dihydroquinazolin-2-yl)propyl)amino)pyrimidine-5-carbonitrile]
- IC50 [1]: 96 nM
- IC50 [2]: 2000 nM
- IC50 [3]: 38 nM
